Data from patent US6737441B2, “Treatment of helicobacter with isothiocyanates” (priority 2000, dated 2004).
In brackets after ≈: the same amount, converted by molar mass. Like-named read-outs stand apart in the source and are kept apart here.

Experiments:
[1] = system: Helicobacter pylori; assay: microbe, parasite or virus in culture
[2] = system: Helicobacter pylori
[3] = system: amoxicillin/clarithromycin/metronidazole - susceptible strains of Helicobacter pylori; assay: Bacteriostatic activity (MIC) against susceptible strains; assay type: cell-based; details: for MIC: Helicobacter pylori, read-out: MIC
[4] = system: clarithromycin and/or metronidazole - intermediate or resistant strains of Helicobacter pylori; assay: Bacteriostatic activity (MIC) against intermediate or resistant strains; assay type: cell-based; details: Helicobacter pylori, read-out: MIC

C[S+]([O-])CCCCN=C=S (stereo not drawn) [Sulforaphane, 4-methylsulfinylbutyl isothiocyanate]
MIC ([1]; strain HP 1): 2 µg/mL (≈ 11.3 µM)
MIC ([1]; strain HP 2): 2 µg/mL (≈ 11.3 µM)
MIC ([1]; strain HP 3): 4 µg/mL (≈ 22.6 µM)
MIC ([1]; strain HP 4): 0.06 µg/mL (≈ 0.338 µM)
Time (h) at which 99.9% intracellular killing was observed ([2]; HP 1, 1 × MIC, tested in triplicate): 8 h
Time (h) at which 99.9% intracellular killing was observed ([2]; HP 1, 5 × MIC, tested in triplicate): 8 h
Time (h) at which 99.9% intracellular killing was observed ([2]; HP 1, 10 × MIC, tested in triplicate): 8 h
Time (h) at which 99.9% intracellular killing was observed ([2]; HP 1, 20 × MIC, tested in triplicate): 8 h
Actual reductions (log10CFU) ([2]; HP 2, 2 h, 1x MIC): 0 log10CFU
Actual reductions (log10CFU) ([2]; HP 2, 2 h, 5x MIC): 0 log10CFU
Actual reductions (log10CFU) ([2]; HP 2, 2 h, 10x MIC): 0 log10CFU
Actual reductions (log10CFU) ([2]; HP 2, 2 h, 20x MIC): −0.12 log10CFU
Actual reductions (log10CFU) ([2]; HP 2, 4 h, 1x MIC): −0.79 log10CFU
Actual reductions (log10CFU) ([2]; HP 2, 4 h, 5x MIC): −0.90 log10CFU
Actual reductions (log10CFU) ([2]; HP 2, 4 h, 10x MIC): −1.17 log10CFU
Actual reductions (log10CFU) ([2]; HP 2, 4 h, 20x MIC): −1.30 log10CFU
Actual reductions (log10CFU) ([2]; HP 2, 8 h, 1x MIC): −0.90 log10CFU
Actual reductions (log10CFU) ([2]; HP 2, 8 h, 5x MIC): −0.90 log10CFU
Actual reductions (log10CFU) ([2]; HP 2, 8 h, 10x MIC): −1.30 log10CFU
Actual reductions (log10CFU) ([2]; HP 2, 8 h, 20x MIC): −1.40 log10CFU
Actual reductions (log10CFU) ([2]; HP 2, 24 h, 1x MIC): −1.18 log10CFU
Actual reductions (log10CFU) ([2]; HP 2, 24 h, 5x MIC): −1.20 log10CFU
Actual reductions (log10CFU) ([2]; HP 2, 24 h, 10x MIC): −1.34 log10CFU
Actual reductions (log10CFU) ([2]; HP 2, 24 h, 20x MIC): −1.40 log10CFU
Actual reductions (log10CFU) ([2]; HP 2, 48 h, 1x MIC): −1.20 log10CFU
Actual reductions (log10CFU) ([2]; HP 2, 48 h, 5x MIC): −1.20 log10CFU
Actual reductions (log10CFU) ([2]; HP 2, 48 h, 10x MIC): −1.40 log10CFU
Actual reductions (log10CFU) ([2]; HP 2, 48 h, 20x MIC): −1.40 log10CFU
Time (h) at which 99.9% intracellular killing was observed ([2]; HP 3, 1 × MIC, tested in triplicate): 4 h
Time (h) at which 99.9% intracellular killing was observed ([2]; HP 3, 5 × MIC, tested in triplicate): 4 h
Time (h) at which 99.9% intracellular killing was observed ([2]; HP 3, 10 × MIC, tested in triplicate): 4 h
Time (h) at which 99.9% intracellular killing was observed ([2]; HP 3, 20 × MIC, tested in triplicate): 2 h
Time (h) at which 99.9% intracellular killing was observed ([2]; HP 4, 1 × MIC, tested in duplicate, not definitive): 8 h
Time (h) at which 99.9% intracellular killing was observed ([2]; HP 4, 5 × MIC, tested in duplicate, not definitive): 8 h
Time (h) at which 99.9% intracellular killing was observed ([2]; HP 4, 10 × MIC, tested in duplicate, not definitive): 8 h
Time (h) at which 99.9% intracellular killing was observed ([2]; HP 4, 20 × MIC, tested in duplicate, not definitive): 4 h
MIC ([3]; H. pylori strain no 1): 2 µg/mL (≈ 11.3 µM)
MIC ([3]; H. pylori strain no 2): 4 µg/mL (≈ 22.6 µM)
MIC ([3]; H. pylori strain no 3): 2 µg/mL (≈ 11.3 µM)
MIC ([3]; H. pylori strain no 4): 4 µg/mL (≈ 22.6 µM)
MIC ([3]; H. pylori strain no 5): 4 µg/mL (≈ 22.6 µM)
MIC ([3]; H. pylori strain no 6): 0.06 µg/mL (≈ 0.338 µM)
MIC ([3]; H. pylori strain no 7): 0.06 µg/mL (≈ 0.338 µM)
MIC ([3]; H. pylori strain no 8): 0.5 µg/mL (≈ 2.82 µM)
MIC ([3]; H. pylori strain no 9): 2 µg/mL (≈ 11.3 µM)
MIC ([3]; H. pylori strain no 10): 0.06 µg/mL (≈ 0.338 µM)
MIC ([3]; H. pylori strain no 11): 2 µg/mL (≈ 11.3 µM)
MIC ([3]; H. pylori strain no 12): 4 µg/mL (≈ 22.6 µM)
MIC ([3]; H. pylori strain no 13): 4 µg/mL (≈ 22.6 µM)
MIC ([3]; H. pylori strain no 14): 0.06 µg/mL (≈ 0.338 µM)
MIC ([3]; H. pylori strain no 15): 0.06 µg/mL (≈ 0.338 µM)
MIC ([3]; H. pylori strain no 16): 1 µg/mL (≈ 5.64 µM)
MIC ([3]; H. pylori strain no 17): 0.5 µg/mL (≈ 2.82 µM)
MIC ([3]; H. pylori strain no 18): 0.5 µg/mL (≈ 2.82 µM)
MIC ([3]; H. pylori strain no 19): 2 µg/mL (≈ 11.3 µM)
MIC ([3]; H. pylori strain no 20): 0.5 µg/mL (≈ 2.82 µM)
MIC ([3]; H. pylori strain no 21): 0.5 µg/mL (≈ 2.82 µM)
MIC ([3]; H. pylori strain no 22): 0.06 µg/mL (≈ 0.338 µM)
MIC ([3]; H. pylori strain no 23): 0.06 µg/mL (≈ 0.338 µM)
MIC ([3]; H. pylori strain no 24): 1 µg/mL (≈ 5.64 µM)
MIC ([3]; H. pylori strain no 25): 0.5 µg/mL (≈ 2.82 µM)
MIC ([3]; H. pylori strain no 26): 0.5 µg/mL (≈ 2.82 µM)
MIC ([3]; H. pylori strain no 27): 0.06 µg/mL (≈ 0.338 µM)
MIC ([3]; H. pylori strain no 28): 0.5 µg/mL (≈ 2.82 µM)
MIC ([3]; H. pylori strain no 29): 2 µg/mL (≈ 11.3 µM)
MIC ([3]; H. pylori strain no 30): 0.06 µg/mL (≈ 0.338 µM)
MIC ([3]; H. pylori strain no 31): 4 µg/mL (≈ 22.6 µM)
MIC ([3]; H. pylori strain no 32): 2 µg/mL (≈ 11.3 µM)
inhibiting the growth of H. pylori compared to traditional antibiotics ([3]; versus amoxycillin, clarithromycin and metronidazole, several strains (Tables 1 and 2)): as effective, if not more effective
MIC ([4]; H. pylori strain no 33): 4 µg/mL (≈ 22.6 µM)
MIC ([4]; H. pylori strain no 34): 0.5 µg/mL (≈ 2.82 µM)
MIC ([4]; H. pylori strain no 35): 4 µg/mL (≈ 22.6 µM)
MIC ([4]; H. pylori strain no 36): 4 µg/mL (≈ 22.6 µM)
MIC ([4]; H. pylori strain no 37): 0.5 µg/mL (≈ 2.82 µM)
MIC ([4]; H. pylori strain no 38): 2 µg/mL (≈ 11.3 µM)
MIC ([4]; H. pylori strain no 39): 0.5 µg/mL (≈ 2.82 µM)
MIC ([4]; H. pylori strain no 40): 4 µg/mL (≈ 22.6 µM)
MIC ([4]; H. pylori strain no 41): 0.125 µg/mL (≈ 0.705 µM)
MIC ([4]; H. pylori strain no 42): 4 µg/mL (≈ 22.6 µM)
MIC ([4]; H. pylori strain no 43): 8 µg/mL (≈ 45.1 µM)
MIC ([4]; H. pylori strain no 44): 0.5 µg/mL (≈ 2.82 µM)
MIC ([4]; H. pylori strain no 45): 1 µg/mL (≈ 5.64 µM)
MIC ([4]; H. pylori strain no 46): 2 µg/mL (≈ 11.3 µM)
MIC ([4]; H. pylori strain no 47): 4 µg/mL (≈ 22.6 µM)
